Read-outs that look alike come from different tables or passages of the source.

In data set [1] the target is SYK (Homo sapiens, UniProt P43405). Briefly: Whole blood assays of SYK inhibition. The data set is classed as cell-based.
Data set [2] concerns panel of 392 wild-type (non-mutant) protein kinases. Briefly: KINOMEscan ATP binding site competition assay, kinase panel selectivity. The settings on record: including JAK and vascular endothelial growth factor receptor; data not shown.
Data set [3] has as its system Ramos B-cell line. Briefly: cells. The settings on record: Homo sapiens, read-out: IC50, anti-IgM-activated calcium flux. As to the method: Baseline fluorescence was recorded for about 20 seconds followed by stimulation with mouse anti-human IgM (10 μg/ml, clone M2E6; Antibody Solutions Inc., Mountain View, CA, USA) for Ramos cells or mouse anti-human CD3 (10 μg/ml; BD Biosciences) for Jurkat cells, and the maximal fluorescent counts in each well were recorded.

The test system of data set [4] is Jurkat T-cell line. Briefly: Anti-CD3-induced calcium flux (FLIPR). The data set is classed as cell-based. The settings on record: Homo sapiens, read-out: IC50, T-cell receptor (anti-CD3)-induced calcium flux. (In general: Calcium assays in cells follow changes in intracellular calcium, usually with a dye or a luminescent sensor.)
Data set [5] relates to human PBMCs. Briefly: cells. The note with it: PBMC, read-out: IC50, BCR-dependent cell surface CD69 expression in CD20+ B cells. As to the method:
(§1) The samples were stained with PE mouse anti-human CD20 and APC mouse anti-human CD69. The percentage of activated (CD69^hi) B cells was determined using unstimulated (negative control) and stimulated (positive control) samples as references.

Data set [6] relates to human whole blood. The data set is described as follows: cells. The note with it: B-cell, read-out: IC50, BCR-dependent cell surface CD69 expression in CD20+ B cells. On the procedure:
as §1

Data set [7] deals with human monocytes. The data set is described as follows: cells. The note with it: Monocyte. On the procedure: Peripheral blood mononuclear cells (PBMCs) were isolated by centrifugation from heparinized blood in a Vacutainer CPT Cell Preparation Tube (BD Biosciences). PBMCs were cultured for 1 to 2 hours to allow monocytes to adhere, and nonadherent cells were washed away. The monocytes were stimulated with human IgG-coated (Jackson Immunology, West Grove, PA, USA) copolymer microsphere beads (Thermo Scientific, Fremont, CA, USA) or lipopolysaccharide (1 ng/ml; Sigma-Aldrich) for 4 hours. TNFα levels in supernatants were determined by enzyme-linked immunosorbent assay kits (BD Biosciences).

For data set [8], the system named is human mast cells. The data set is described as follows: cells. The note with it: Mast cell, read-out: IC50, IgE/antigen-induced histamine release. On the procedure: The method has been reported previously by our group. […] For measuring histamine release, cells were sensitized with 0.1 μg/ml anti-4-hydroxy-3-nitrophenylacetyl hapten IgE (Serotec, Raleigh, NC, USA) overnight, and then cross-linked with 1 μg/ml NP(30)-BSA (Biosearch Technologies, Novato, CA, USA) for 30 minutes. Supernatants were collected and assayed for histamine release using a histamine enzyme immunoassay (Oxford Biomedical Research, Rochester Hills, MI, USA). The percentage of histamine release was calculated by comparing various treatments with positive control.

In data set [9] the test system is human PBMCs, CD3+ T cells. Briefly: IL-2-induced STAT5 phosphorylation in CD3+ T cells (flow cytometry). The data set is classed as cell-based. The settings on record: for effect on phosphorylation of STAT5: at 1 μM, IL-2 stimulated CD3+ T cells. (In general: A flow cytometer gives signals particle by particle.)
Description: (§2) Human PBMCs were pre-incubated with compound for 30 minutes followed by 20 minutes stimulation with IL-2 (100 ng/ml) for signal transducers and activators of transcription 5 (STAT5) phosphorylation or IFNγ (100 ng/ml) for STAT1 phosphorylation.
Data set [10] deals with human PBMCs, CD14+ monocytes. The data set is described as follows: IFNγ-induced STAT1 phosphorylation in CD14+ monocytes (flow cytometry). The data set is classed as cell-based. The note with it: IFNγ-treated CD14+ monocytes; except at the highest concentration tested (10 μM).
Description: as §2
Data set [11] has as its system mouse bone marrow macrophages. The data set is described as follows: RANK-L/M-CSF mediated osteoclastogenesis, TRAP+ multinuclear cells. The data set is classed as cell-based. The settings on record: in the presence of more than 0.4 μM. On the procedure: Bone marrow cells were obtained from C57BL/6 mouse tibiae and suspended in culture medium supplemented with monocyte colony-stimulating factor (100 ng/ml) for 16 hours. […] The cells were stained using a tartrate-resistant acid phosphate (TRAP) staining kit (Sigma, St Louis, MO, USA). TRAP^+ multinuclear cells were counted for each well under a microscope.

In data set [12] the test system is human B cells. The data set is described as follows: TLR9-mediated plasmablast differentiation (ODN2006 + IL-2, 6 days). It counts as cell-based. On the procedure: Human B cells were differentiated with ODN2006 (50 nM) and IL-2 (10 ng/ml) for 6 days. The differentiated cells were stained with V450 anti-CD38, FITC anti-CD20, PE anti-CD19 and APC intracellular IgM. The plasmablasts were identified as CD19^+CD38^+CD20^–IgM^+ cells. The production of IgG and IgM was quantitated by AlphaLISA.

The test system of data set [13] is human plasmacytoid dendritic cells. The data set is described as follows: TLR9-mediated pDC activation (ODN2216, 2 days). The data set is classed as cell-based. The note with it: human pDCs, concentration-dependent. As to the method:
Human plasmacytoid dendritic cells (pDCs) were isolated by negative selection from PBMCs with the human pDC Isolation Kit (Miltenyi Biotec, Auburn, CA, USA). The purity was confirmed with CD303 (BDCA-2; Miltenyi Biotec) staining and stimulated with ODN2216 (1 μM) for 2 days. The production of IFNα and TNFα was measured by AlphaLISA.

Data set [14] is described as follows: Pharmacokinetics after single oral dosing in mouse. It counts as in vivo. The settings on record: plasma.
Data set [15] relates to DBA1/J mice with collagen-induced arthritis. The data set is described as follows: Murine collagen-induced arthritis model (mCIA). The data set is classed as in vivo, mouse. As to the method: The mCIA model has been reported previously. Briefly, DBA1/J male mice were injected intradermally with 0.1 ml bovine type II collagen (100 μg; Chondrex Inc., Redmond, WA, USA) and complete Freund’s adjuvant (200 μg; Difco, Detroit, MI, USA) followed by second immunization on day 21 with bovine type II collagen and incomplete Freund adjuvant. […] Clinical arthritis scores (1 to 4) of individual paws were assessed and the arthritic index for each mouse was determined by adding the individual scores of all four paws. The level of cytokines in serum was determined by Luminex analysis (Millipore, Billerica, MA, USA). Hind paws from CIA mice were collected into 10% neutral buffered formalin. After decalcification in 10% formic acid, paws were embedded in paraffin, sectioned at 8 μm and stained with toluidine blue. Inflammation (infiltration of inflammatory cells), pannus, cartilage damage, and bone resorption were scored in a double-blinded fashion by a board-certified pathologist at Boulder BioPATH, Inc. (Boulder, CO, USA) using standard criteria, with 0 being normal and 5 being the most severe.

The test system of data set [16] is mouse whole blood B220+ B cells. The data set is described as follows: Ex vivo anti-IgD-induced CD69 expression on B220+ B cells in whole blood of dosed CIA mice. The settings on record: 2 and 5 hours post dose.
Data set [17] has as its system JAK1. The data set is described as follows: KINOMEscan ATP binding site competition assay. The note with it: 1 μM compound; truncated recombinant JAK1.
For data set [18], the target named is JAK3 (Homo sapiens, UniProt P52333). The data set is described as follows: KINOMEscan ATP binding site competition assay. The note with it: 1 μM compound; truncated recombinant JAK3.
The subject of data set [19] is Ramos cells. The data set is described as follows: Western blot of anti-IgM induced phosphorylation of BTK, PLCγ2, AKT and ERK. The settings on record: 1 μM pretreatment. On the technique in general: In western blotting, separated proteins are transferred to a membrane and probed.
Excerpt: The protein phosphorylation was detected with rabbit antibodies of anti-phospho-BTK(Y223) (Epitomics Inc., Burlingame, CA, USA), anti-phospho-PLCγ2(Y1217), anti-phospho-ERK(T202/Y204) or anti-phospho-AKT(S473).

Chain of JAK3 (P52333 811-1124 limits assumed): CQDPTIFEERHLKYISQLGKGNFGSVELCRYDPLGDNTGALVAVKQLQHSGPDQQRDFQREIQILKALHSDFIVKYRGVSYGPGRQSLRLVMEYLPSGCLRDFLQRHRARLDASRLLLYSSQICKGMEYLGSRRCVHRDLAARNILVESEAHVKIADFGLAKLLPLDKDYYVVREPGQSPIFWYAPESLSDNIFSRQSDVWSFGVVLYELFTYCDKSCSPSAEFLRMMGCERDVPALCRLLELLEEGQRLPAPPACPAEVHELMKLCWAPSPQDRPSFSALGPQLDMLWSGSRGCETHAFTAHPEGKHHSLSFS

With `COc1cc(Nc2ncc(F)c(Nc3ccc4c(n3)N(COP(=O)(O)O)C(=O)C(C)(C)O4)n2)cc(OC)c1OC` [R788], the “SYK inhibition in whole blood assays” value in data set [1] was “relatively weak”. For the same compound, in [2], the “kinase selectivity in the KinaseScan assay” value was “inhibiting one-half of the kinome”.
By AUC is commonly meant concentration integrated over time. Low values mean low exposure, high ones high exposure. The Cmax is the highest concentration seen after dosing. As a reminder, the Tmax is the time from dosing to the highest level. The term half-life denotes the time needed for the level to fall by half in the phase considered. High values mean slow loss, low ones fast loss. Take `Cc1ccc(Nc2cc(N[C@@H]3CCCC[C@@H]3N)nnc2C(N)=O)nc1C` [RO9021, 6-[(1R,2S)-2-amino-cyclohexylamino]-4-(5,6-dimethyl-pyridin-2-ylamino)-pyridazine-3-carboxylic acid amide]: the IC50 in data set [3] was found to be 78 ± 21 nM; in [4], 910 ± 270 nM; in [5], 83 nM; in [6], 87 nM; in data set [7] (4 h, read-out: IC50, TNFα production induced by crosslinking of FcγR), 63 ± 19 nM; in data set [7] (read-out: IC50, TLR4-dependent TNFα production), 2900 ± 900 nM. Further, the IC50 came out at 22.8 ± 1.7 nM in data set [8] and 1320 ± 660 nM in data set [9] (Homo sapiens, T-cell, read-out: IC50, IL-2-induced STAT5 phosphorylation). For the same compound, in data set [9], the “effect on phosphorylation of STAT5” value was “no significant effect”. Besides, the “effect on phosphorylation of STAT1” value in data set [10] is given as “no effect”. Besides, the “TRAP+ cells” value in [11] is recorded as “barely detectable”. In addition, the “production of IL-6 in the supernatant” value in data set [12] is on record as “reduced”. Also, the “production of IgG in the supernatant” value in [12] is reported as “reduced”. Further, the “production of IgM in the supernatant” value in [12] is given as “reduced”. Moreover, the “production of IFNα” value in data set [13] was “inhibited”. Further, the “production of TNFα” value in data set [13] is “inhibited”. Further, the AUC came out at 3.85 µM·h in data set [14] (single oral dose 5 mg/kg) and 35.8 µM·h in data set [14] (single oral dose 45 mg/kg). Further, the Cmax is 0.695 µM in [14] (single oral dose 5 mg/kg) and 5.76 µM in data set [14] (single oral dose 45 mg/kg). Moreover, the Tmax was 1 h in data set [14] (single oral dose 5 mg/kg) and 0.5 h in [14] (single oral dose 45 mg/kg). Further, the half-life in [14] (single oral dose 5 mg/kg) is 4.34 h; in [14] (single oral dose 45 mg/kg) it was 3.54 h. Moreover, the “histopathology of hind paws (inflammation, pannus, cartilage damage, bone resorption)” value in data set [15] (5 and 45 mg/kg orally daily for 14 days) is “vehicle-treated, but not RO9021-treated, mice had severe inflammation and cartilage damage”. In data set [15] (5 and 45 mg/kg orally daily for 14 days from day 21, significant in both groups vs vehicle), the “arthritis progression, clinical scores” value is “inhibited arthritis progression in a dose-dependent manner”. Besides, in data set [15] (after 14 days of treatment), the “serum level of IL-6” value is “markedly reduced”. The “serum level of KC(CXCL1)” value in data set [15] (after 14 days of treatment) is on record as “markedly reduced”. The “anti-IgD-induced CD69 expression on B cells (B220+), ex vivo” value in data set [16] is reported as “inhibited”. Besides, the “competition with compound (JAK1)” value in data set [17] is “more than 90%”. For the same compound, the “competition with compound (JAK3)” value in [18] was “more than 90%”. Moreover, the “anti-IgM induced phosphorylation of BTK, PLCγ2, AKT and ERK” value in data set [19] is reported as “inhibited”.
As for `C[C@@H]1CCN(C(=O)CC#N)C[C@@H]1N(C)c1ncnc2[nH]ccc12` [tofacitinib, reference compound], the “effect on phosphorylation of STAT5” value in [9] is on record as “completely blocked”.

The values above are taken from PMC3978604 (Arthritis Research & Therapy, 2013).
